Experimental data taken from patent US20170037028A1 (BAYER PHARMA AKTIENGESELLSCHAFT, priority 2013, published 2017).

The molecules below were run against T1, GLUT1 (Homo sapiens, UniProt P11166) (assay: Indirect measurement of GLUT1 activity by quantification of intracellular ATP levels (glucose induced ATP increase)). Settings: DLD1 cells; 0.1 mM glucose, 1 μM Rotenone, 15 min; CellTiter-Glo ATP readout; IC50 values standardized to cytochalasin B IC50 values; read-out: IC50 regarding glucose induced ATP increase (GLUT1 inhibition).
T1 sequence (P11166 1-492): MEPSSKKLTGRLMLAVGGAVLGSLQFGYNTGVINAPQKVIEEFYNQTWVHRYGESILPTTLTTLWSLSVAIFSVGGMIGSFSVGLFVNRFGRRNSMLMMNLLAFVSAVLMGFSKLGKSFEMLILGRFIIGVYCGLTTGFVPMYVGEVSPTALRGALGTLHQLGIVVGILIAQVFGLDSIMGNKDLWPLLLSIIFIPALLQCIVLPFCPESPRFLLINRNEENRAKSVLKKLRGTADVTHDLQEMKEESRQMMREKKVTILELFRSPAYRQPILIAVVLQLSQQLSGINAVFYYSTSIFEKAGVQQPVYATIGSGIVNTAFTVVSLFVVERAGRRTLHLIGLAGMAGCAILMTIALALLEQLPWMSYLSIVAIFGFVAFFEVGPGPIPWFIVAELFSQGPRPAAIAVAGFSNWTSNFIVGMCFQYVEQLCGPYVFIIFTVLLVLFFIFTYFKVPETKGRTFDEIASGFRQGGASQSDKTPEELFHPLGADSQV
Assay type: cell-based
Set-up: endogenous in cells; host or cells: DLD1 or CHO-K1
Method in brief: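 DLD1 or CHO-K1 cells were starved overnight in glucose-free medium with 1% FCS, then combined with an oxidative phosphorylation inhibitor. GLUT1 activity was read as glucose-induced ATP increase, GLUT2 as fructose-induced. Intracellular ATP was quantified by CellTiter-Glo luminescence.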

Structure (SMILES)	IC50
Cc1c(NC(=O)c2cc(C(N)=O)nc3cc(F)ccc23)c(C(F)(F)F)nn1Cc1ccc(C#N)nn1 [Example 427, N^4-{1-[(6-cyanopyridazin-3-yl)methyl]-5-methyl-3-(trifluoromethyl)-1H-pyrazol-4-yl}-7-fluoroquinoline-2,4-dicarboxamide]	78.3 nM

Same assay, conditions: read-out: IC50 regarding glucose induced ATP increase (GLUT1 inhibition)

IC50	Structure (SMILES)
2320 nM	Cc1nn(Cc2ccc(C(=O)NCC(O)CO)cn2)c(C)c1NC(=O)c1cc(C(F)(F)F)nc2ccc(Br)cc12 (stereo not drawn) [Example 1263]
167 nM	Cc1c(NC(=O)c2cc(C(F)(F)F)nc3ccc(Br)cc23)c(C(F)(F)F)nn1Cc1ccncc1 [Example 1365]
4.3 nM	Cc1ccccc1Cn1nc(C(F)(F)F)c(NC(=O)c2cc(C(N)=O)nc3cc(F)c(Cl)cc23)c1C [Example 1497]
3910 nM	Cc1ccc2c(C(=O)Nc3c(C)nn(Cc4ccc(F)cc4)c3C)cc(C)nc2c1 [Example 1278]
109 nM	CCOC(=O)c1cc(Cn2nc(C(F)(F)F)c(NC(=O)c3cc(C(N)=O)nc4cc(F)c(Cl)cc34)c2C)on1 [Example 1683]
97 nM	Cc1nn(Cc2ccncn2)c(C)c1NC(=O)c1cc(C(F)(F)F)nc2ccc(Br)cc12 [Example 1416]
1670 nM	Cc1nn(Cc2ccc(F)cc2)c(C(=O)N(C)C)c1NC(=O)c1cc(C(N)=O)nc2ccccc12 [Example 1250]
84.9 nM	Cc1cc(Cn2nc(C(F)(F)F)c(NC(=O)c3cc(C(N)=O)nc4cc(F)ccc34)c2C)on1 [Example 1542]
556 nM	COc1cc(C(=O)Nc2c(C)nn(Cc3ccn(C)n3)c2C)c2ccccc2n1 [Example 1526]
0.8 nM	CCc1ccc(Cn2nc(C(F)(F)F)c(NC(=O)c3cc(C(N)=O)nc4ccc(Br)cc34)c2C)cc1 [Example 1414]
48.2 nM	CCc1noc(Cn2nc(C)c(NC(=O)c3cc(C(F)(F)F)nc4ccc(Br)cc34)c2C)n1 [Example 1570]
105 nM	Cc1nn(CC2CCN(S(=O)(=O)CCCC#N)CC2)c(C)c1NC(=O)c1cc(C(N)=O)nc2ccccc12 [Example 1512]
11100 nM	Cc1ccc2nc(C)cc(C(=O)Nc3c(C)nn(Cc4cccc(C(F)(F)F)c4)c3C)c2c1 [Example 1300]
238 nM	Cc1nn(Cc2ccc(C#N)cc2)c(C)c1NC(=O)c1cc(C(=O)NCCN2CCOCC2)nc2cc(F)ccc12 [Example 1402]
45.5 nM	Cc1nn(Cc2cccc(OC(F)(F)F)c2)c(C)c1NC(=O)c1cc(C(N)=O)nc2ccccc12 [Example 1585]
89.9 nM	Cc1c(NC(=O)c2cc(C(N)=O)nc3cccc(F)c23)c(C(F)(F)F)nn1Cc1ccc(C(C)(C)C#N)cc1 [Example 1597]
107 nM	COCc1noc(Cn2nc(C)c(NC(=O)c3cc(C(N)=O)nc4ccccc34)c2C)n1 [Example 1508]
66.3 nM	Cc1c(NC(=O)c2cc(C(F)(F)F)nc3ccc(Br)cc23)c(C(F)(F)F)nn1Cc1ccc(S(C)(=O)=O)cc1 [Example 1430]
0.9 nM	Cc1nn(Cc2ccc(F)c(F)c2)c(C)c1NC(=O)c1cc(C(N)=O)nc2cc(F)c(Cl)cc12 [Example 1472]

More lines, now with the values behind:

Structure (SMILES)	IC50
Cc1nn(Cc2cc(C3CC3)on2)c(C)c1NC(=O)c1cc(C(N)=O)nc2cc(F)c(Cl)cc12 [Example 417, 6-chloro-N^4-{1-[(5-cyclopropyl-1,2-oxazol-3-yl)methyl]-3,5-dimethyl-1H-pyrazol-4-yl}-7-fluoroquinoline-2,4-dicarboxamide]	0.7 nM
COc1cc(C(=O)Nc2c(C)nn(Cc3ccccc3C#N)c2C)c2ccccc2n1 [Example 80, N-[1-(2-cyanobenzyl)-3,5-dimethyl-1H-pyrazol-4-yl]-2-methoxyquinoline-4-carboxamide]	229 nM
COc1cc(C(=O)Nc2c(C)nn(Cc3ccncc3C#N)c2C)c2ccccc2n1 [Example 1189]	310 nM
Cc1c(NC(=O)c2cc(C(F)(F)F)nc3cc(F)c(F)cc23)c(C(F)(F)F)nn1Cc1ccc(F)cc1F [Example 210, N-[1-(2,4-difluorobenzyl)-5-methyl-3-(trifluoromethyl)-1H-pyrazol-4-yl]-6,7-difluoro-2-(trifluoromethyl)quinoline-4-carboxamide]	849 nM
Cc1nn(Cc2ccc(F)cc2)c(C)c1NC(=O)c1cc(C(N)=O)nc2ccc(Br)cc12 [Example 119, 6-bromo-N^4-[1-(4-fluorobenzyl)-3,5-dimethyl-1H-pyrazol-4-yl]quinoline-2,4-dicarboxamide]	1.3 nM
Cc1nn(CC2CCCCC2)c(C)c1NC(=O)c1cc(C(F)(F)F)nc2cc(F)c(F)cc12 [Example 195, N-[1-(cyclohexylmethyl)-3,5-dimethyl-1H-pyrazol-4-yl]-6,7-difluoro-2-(trifluoromethyl)quinoline-4-carboxamide]	272 nM
CNC(=O)c1nn(Cc2ccc(F)cc2)c(C)c1NC(=O)c1cc(C(N)=O)nc2ccccc12 [Example 1231]	1040 nM
C=Cc1ccc(Cn2nc(C)c(NC(=O)c3cc(OC)nc4ccccc34)c2C)cc1 [Example 1172]	198 nM
Cc1nn(Cc2ccc(F)cc2)c(C)c1NC(=O)c1cc(C(F)(F)F)nc2cc(Cl)c(Cl)cc12 [Example 106, 6,7-dichloro-N-[1-(4-fluorobenzyl)-3,5-dimethyl-1H-pyrazol-4-yl]-2-(trifluoromethyl)quinoline-4-carboxamide]	571 nM
Cc1nn(Cc2ccc(C(N)=O)cn2)c(C)c1NC(=O)c1cc(C(F)(F)F)nc2ccc(Br)cc12 [Example 1138]	102 nM
COc1ccc(Cn2nc(C(F)(F)F)c(NC(=O)c3cc(C(N)=O)nc4cc(F)c(F)cc34)c2C)cc1 [Example 279, 6,7-difluoro-N^4-[1-(4-methoxybenzyl)-5-methyl-3-(trifluoromethyl)-1H-pyrazol-4-yl]quinoline-2,4-dicarboxamide]	1.4 nM
CNC(=O)N(C)CCNC(=O)c1ccc(Cn2nc(C)c(NC(=O)c3cc(C(F)(F)F)nc4ccc(Br)cc34)c2C)cc1 [Example 1043]	8.8 nM
Cc1nn(Cc2ccc(C(=O)NCC3CC3)cc2)c(C)c1NC(=O)c1cc(C(F)(F)F)nc2ccc(Br)cc12 [Example 1079]	24.4 nM
COc1ccc2nc(C(N)=O)cc(C(=O)Nc3c(C)nn(Cc4ccc(C#N)cc4)c3C)c2c1 [Example 258, N^4-[1-(4-cyanobenzyl)-3,5-dimethyl-1H-pyrazol-4-yl]-6-methoxyquinoline-2,4-dicarboxamide]	1 nM
Cc1nn(Cc2ccc(C(=O)NCCCc3ccccc3)cc2)c(C)c1NC(=O)c1cc(C(F)(F)F)nc2ccc(Br)cc12 [Example 1178]	224 nM
Cc1cccc(CNC(=O)c2ccc(Cn3nc(C)c(NC(=O)c4cc(C(F)(F)F)nc5ccc(Br)cc45)c3C)cc2)c1 [Example 1190]	312 nM
COc1ccc(Cn2nc(C(F)(F)F)c(NC(=O)c3cc(C(N)=O)nc4cc(F)c(Cl)cc34)c2C)cn1 [Example 281, 6-chloro-7-fluoro-N^4-{1-[(6-methoxypyridin-3-yl)methyl]-5-methyl-3-(trifluoromethyl)-1H-pyrazol-4-yl}quinoline-2,4-dicarboxamide]	1.3 nM
Cc1nn(Cc2ccc(C(=O)NCC#N)cc2)c(C)c1NC(=O)c1cc(C(F)(F)F)nc2ccc(Br)cc12 [Example 1022]	2.4 nM
CCc1nn(Cc2ccc(C#N)cc2)c(CC)c1NC(=O)c1cc(C(F)(F)F)nc2ccc(Br)cc12 [Example 309, 6-bromo-N-[1-(4-cyanobenzyl)-3,5-diethyl-1H-pyrazol-4-yl]-2-(trifluoromethyl)quinoline-4-carboxamide]	363 nM
Cc1c(NC(=O)c2cc(C(N)=O)nc3cc(F)ccc23)c(C(F)(F)F)nn1Cc1ccc(C#N)cn1 [Example 360, N^4-{1-[(5-cyanopyridin-2-yl)methyl]-5-methyl-3-(trifluoromethyl)-1H-pyrazol-4-yl}-7-fluoroquinoline-2,4-dicarboxamide]	2 nM
Cc1ccc2nc(C)cc(C(=O)Nc3c(C(F)(F)F)nn(Cc4ccc(F)c(F)c4)c3C)c2c1 [Example 203, N-[1-(3,4-difluorobenzyl)-5-methyl-3-(trifluoromethyl)-1H-pyrazol-4-yl]-2,6-dimethylquinoline-4-carboxamide]	602 nM
Cc1nn(Cc2ccc(C(=O)N3CCN(CCO)CC3)cc2)c(C)c1NC(=O)c1cc(C(F)(F)F)nc2ccc(Br)cc12 [Example 1192]	339 nM
CC(C)c1c(NC(=O)c2cc(C(N)=O)nc3cc(F)ccc23)c(C(F)(F)F)nn1Cc1ccc(C#N)cc1 [Example 318, N^4-[1-(4-cyanobenzyl)-5-isopropyl-3-(trifluoromethyl)-1H-pyrazol-4-yl]-7-fluoroquinoline-2,4-dicarboxamide]	352 nM
Cc1nn(Cc2c(F)cc(F)cc2F)c(C)c1NC(=O)c1cc(C(F)(F)F)nc2c(Cl)cc(Cl)cc12 [Example 57, 6,8-dichloro-N-[3,5-dimethyl-1-(2,4,6-trifluorobenzyl)-1H-pyrazol-4-yl]-2-(trifluoromethyl)quinoline-4-carboxamide]	66.7 nM
CNC(=O)c1cc(C(=O)Nc2c(C(F)(F)F)nn(Cc3ccc(F)cc3)c2C)c2ccccc2n1 [Example 178, N^4-[1-(4-fluorobenzyl)-5-methyl-3-(trifluoromethyl)-1H-pyrazol-4-yl]-N2-methylquinoline-2,4-dicarboxamide]	78.5 nM
